Measured values as given in the supplement of paper PMC8671470.
± gives the standard deviation of the averaged measurements.

Tested on: HL-60
Test: cell viability (% survival relative to DMSO control); higher = less cytotoxic
Settings: 72 h
Procedure, shortened: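 In 384-well plates, the full library was rescreened in duplicate on HL-60 cells in RPMI 1640 with 10% FBS, at 1–10,000 nM in five tenfold concentrations, for 72 h at 37 °C, 5% CO2. Each run also held DMSO or 100 nM of one of three metabolic inhibitors. Viability was measured by CellTiter-Glo and normalised to DMSO wells and to wells with proteasome inhibitor, present at 10 μM. Any area under the curve comes from four-parameter log-logistic fitting with drc and PharmacoGx.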

[1] = 0.001 µM, co-treatment: AZD3965 100 nM
[2] = 0.001 µM, co-treatment: DMSO vehicle
[3] = 0.001 µM, co-treatment: GSK2194069 100 nM
[4] = 0.001 µM, co-treatment: pictilisib 100 nM
[5] = 0.01 µM, co-treatment: AZD3965 100 nM
[6] = 0.01 µM, co-treatment: DMSO vehicle
[7] = 0.01 µM, co-treatment: GSK2194069 100 nM
[8] = 0.01 µM, co-treatment: pictilisib 100 nM
[9] = 0.1 µM, co-treatment: AZD3965 100 nM
[10] = 0.1 µM, co-treatment: DMSO vehicle
[11] = 0.1 µM, co-treatment: GSK2194069 100 nM
[12] = 0.1 µM, co-treatment: pictilisib 100 nM
[13] = 1 µM, co-treatment: AZD3965 100 nM
[14] = 1 µM, co-treatment: DMSO vehicle
[15] = 1 µM, co-treatment: GSK2194069 100 nM
[16] = 1 µM, co-treatment: pictilisib 100 nM
[17] = 10 µM, co-treatment: AZD3965 100 nM
[18] = 10 µM, co-treatment: DMSO vehicle
[19] = 10 µM, co-treatment: GSK2194069 100 nM
[20] = 10 µM, co-treatment: pictilisib 100 nM

SMILES | cell viability [1] | cell viability [2] | cell viability [3] | cell viability [4] | cell viability [5] | cell viability [6] | cell viability [7] | cell viability [8] | cell viability [9] | cell viability [10] | cell viability [11] | cell viability [12] | cell viability [13] | cell viability [14] | cell viability [15] | cell viability [16] | cell viability [17] | cell viability [18] | cell viability [19] | cell viability [20]
c1ccc2c(c1)OCC(=C1NCCN1)O2 [Idazoxan] | 103 ± 1.6% | 99.03 ± 0.46% | 99.9 ± 1.9% | 104 ± 1.9% | 98 ± 3.2% | 101.2 ± 0.3% | 101 ± 1.7% | 102 ± 1.5% | 102 ± 3.3% | 100.8 ± 0.84% | 101.2 ± 0.31% | 93 ± 1.3% | 96 ± 5.5% | 101 ± 1.5% | 98.4 ± 4.8% | 95.1 ± 1.4% | 100 ± 2.2% | 98.4 ± 3.7% | 99.15 ± 0.27% | 98.7 ± 9.1%
CCOC(=O)[C@@]1(CCCCCCOc2ccc(Cl)cc2)CO1 [Etomoxir] | 102.9 ± 0.64% | 103 ± 1.2% | 106 ± 3.9% | 100 ± 5.9% | 84.3 ± 34% | 99.54 ± 0.17% | 92 ± 16% | 80.2 ± 27% | 106 ± 3.8% | 102 ± 3.4% | 103.8 ± 0.98% | 113 ± 5% | 87.5 ± 11% | 86.5 ± 21% | 77.9 ± 16% | 102 ± 3.8% | 109 ± 1.6% | 106 ± 1.7% | 100 ± 6.6% | 98 ± 6.5%
CC(C)C[C@H](NC(=O)[C@@H](O)[C@H](N)Cc1ccccc1)C(=O)O [Ubenimex] | 101 ± 4.3% | 104 ± 3.4% | 102 ± 3.6% | 99.1 ± 1.1% | 101 ± 11% | 103 ± 1.4% | 95.6 ± 11% | 93.2 ± 11% | 99.3 ± 9.9% | 102 ± 3.4% | 107 ± 2% | 104 ± 7.1% | 98.1 ± 2.2% | 97.6 ± 5.8% | 94 ± 4.7% | 79.3 ± 1.4% | 106 ± 2% | 95.3 ± 1.6% | 103 ± 5.7% | 98.8 ± 3.3%
Cl.OC[C@H]1NC[C@@H](O)[C@@H](O)[C@@H]1O [1-Deoxymannojirimycin hydrochloride] | 100 ± 3.4% | 99 ± 15% | 94.8 ± 6.3% | 95 ± 18% | 99.9 ± 6.2% | 107 ± 2.2% | 90.2 ± 12% | 99.8 ± 5% | 101 ± 1.6% | 100 ± 1.1% | 93.66 ± 0.51% | 102 ± 2.5% | 101.8 ± 0.31% | 106 ± 1.2% | 101 ± 9% | 111.2 ± 1% | 101 ± 5.8% | 95.9 ± 2.1% | 86.6 ± 3% | 104 ± 6.5%
O=C(O)CCc1ccc(NCc2cccc(Oc3ccccc3)c2)cc1 [GW9508] | 101 ± 1.3% | 95.5 ± 6.2% | 105 ± 9.8% | 99.4 ± 5.3% | 98.73 ± 0.68% | 99.12 ± 0.57% | 98.1 ± 2.8% | 90.3 ± 3.8% | 98 ± 3.5% | 101.3 ± 0.3% | 101 ± 2.4% | 90.9 ± 12% | 105 ± 4.1% | 99.6 ± 0.95% | 108 ± 8.4% | 97.1 ± 6.7% | 103 ± 3.2% | 98.5 ± 1.1% | 107 ± 3.9% | 100 ± 3.3%
Clc1ccc2c(c1Cl)CNCC2 | 97.69 ± 0.2% | 100 ± 2.3% | 93.2 ± 0.5% | 97.1 ± 7.5% | 94 ± 7.1% | 103.4 ± 0.11% | 102.4 ± 0.12% | 108 ± 11% | 103 ± 2.1% | 103 ± 3.9% | 107 ± 9.4% | 103 ± 8.7% | 105 ± 4.7% | 99.5 ± 2.9% | 106.8 ± 0.64% | 95.3 ± 7.3% | 102 ± 1.6% | 107 ± 6.2% | 99.73 ± 0.7% | 103.3 ± 0.41%
C[C@]12O[C@H](C[C@]1(O)CO)n1c3ccccc3c3c4c(c5c6ccccc6n2c5c31)CNC4=O [Lestaurtinib] | 104 ± 3.9% | 98.1 ± 4.1% | 107 ± 9.9% | 102 ± 4.3% | 92.9 ± 13% | 70.9 ± 44% | 86.5 ± 36% | 66.2 ± 28% | 76.5 ± 4.3% | 86.9 ± 3.4% | 83.2 ± 7.7% | 53.5 ± 8.1% | 23.5 ± 3.5% | 26.6 ± 0.46% | 31 ± 4.3% | 20.3 ± 3.2% | -1.19 ± 0.32% | -1.8 ± 0.59% | -1.73 ± 0.11% | -2.07 ± 1.2%
O=c1c2ccccc2[se]n1-c1ccccc1 [Ebselen] | 104 ± 4.5% | 98.4 ± 6.1% | 96.3 ± 1.7% | 96.51 ± 0.22% | 101 ± 1.1% | 98.6 ± 6.1% | 102 ± 2.2% | 92.1 ± 3.8% | 102 ± 11% | 103 ± 4.5% | 103 ± 11% | 97.4 ± 12% | 104 ± 5.3% | 99 ± 4.8% | 108 ± 10% | 103 ± 3.2% | 100 ± 1.4% | 95.7 ± 5.4% | 98.4 ± 1.8% | 86.2 ± 7.3%
Oc1cc(Cl)ccc1Oc1ccc(Cl)cc1Cl [Triclosan] | 100 ± 3.6% | 101 ± 2.6% | 102 ± 4.7% | 93.3 ± 13% | 104 ± 5.1% | 98.7 ± 7.6% | 107 ± 9.5% | 120 ± 9.4% | 96.5 ± 1.2% | 99.7 ± 1.2% | 95.3 ± 5.2% | 95.7 ± 12% | 94.9 ± 7.2% | 99.6 ± 1.5% | 105 ± 4.4% | 111 ± 3.4% | 103 ± 3.2% | 111 ± 4% | 99.7 ± 2.5% | 107.6 ± 0.22%
CCN(CC)CCN(Cc1ccc(-c2ccc(C(F)(F)F)cc2)cc1)C(=O)Cn1c(SCc2ccc(F)cc2)nc(=O)c2c1CCC2 [Darapladib] | 96.2 ± 14% | 103.1 ± 0.25% | 98.7 ± 14% | 85.9 ± 27% | 100 ± 3.4% | 99.55 ± 0.55% | 97.8 ± 1.3% | 97.2 ± 7% | 104 ± 1.6% | 101 ± 6.2% | 99.8 ± 1.8% | 102 ± 4.5% | 93.7 ± 2.3% | 96.27 ± 0.22% | 84.4 ± 10% | 97.3 ± 7.4% | -1.351 ± 0.0054% | -2.41 ± 0.42% | -2.4 ± 0.029% | -2.26 ± 0.088%
Cc1noc2c1-c1ccccc1C(c1ccc(Cl)cc1)=N[C@H]2CC(N)=O [CPI-0610] | 101 ± 2.2% | 96.3 ± 1.7% | 101 ± 1.7% | 104 ± 2.6% | 101 ± 1.5% | 95.3 ± 1.7% | 100.1 ± 0.39% | 94.4 ± 1.4% | 92 ± 14% | 98.8 ± 2.3% | 97.5 ± 6.9% | 75.5 ± 14% | 62.6 ± 7.4% | 74.8 ± 9.4% | 71.4 ± 2.1% | 45.8 ± 1.4% | 16.8 ± 1.1% | 23.7 ± 2.8% | 25.3 ± 6.1% | 8.68 ± 2.2%
